Reference: article PMC9416111, “Synthesis and Biological Activity of Unsymmetrical Monoterpenylhetaryl Disulfides” (Molecules, 2022)

Test system: influenza virus A/Puerto Rico/8/34 (H1N1)
Assay: Antiviral cell protection assay in MDCK cells
Assay type: cell-based

CC1(C)[C@H]2CC[C@@H](CSSc3ncccc3C(=O)O)[C@@H]1C2 [Compound 2d, 2-((((1S,2R,5S)-6,6-dimethylbicyclo[3.1.1]heptan-2-yl)methyl)disulfanyl)nicotinic acid]
virus-inhibiting activity, in words: higher than that of Rimantadine
